Key:
[1] = test system: Male Rj:NMRI mice; experiment: Elevated Plus Maze, Mouse (EPM); format: in vivo; conditions: for Closed Arms Number of Entries % change / Open Arms Number of Entries % change / Open Arms Time Spent (sec) % change: change from vehicle control
From the text: Rodents avoid open spaces (in the case of the assay apparatus, the open arms of an elevated plus-maze). Compounds which have anti-anxiety activity increase exploratory activity of the rodents in the open arms of the elevated plus-maze. The EPM assay was run according to the procedure as described by Handley and Mithani (Naunyn. Schmied. Arch. Pharmacol., 327, 1-5, 1984).
Male Rj:NMRI mice, weighing 20 - 30 g (max. range per experiment = 5 g) at the beginning of the experiments, were obtained from Elevage Janvier, 53940 Le Genest-Saint-Isle, France and used in the assay. The animals were delivered to the laboratory at least 5 days before the experiments during which time they were acclimatized to laboratory conditions. The mice were housed in groups of 10 in Macrolon cages (25 x 19 x 13 cm) on wood litter (Litalabo-SPPS, 95100 Argenteuil, France) with free access to food (Code 113 - SAFE, 89290 Augy, France) and water until tested (or as indicated otherwise). The animal house was maintained under artificial lighting (12 hours) between 7:00 and 19:00 in a controlled ambient temperature of 21 ± 3°C, and relative humidity between 30-80%.
The elevated plus-maze consisted of 4 arms of equal length and width (14 x 5 cm) arranged in the form of a plus sign (+). Two opposite arms were enclosed by 12 cm high walls (closed arms). The 2 other arms had no walls (open arms). The maze was raised 56 cm above the floor. A mouse was placed in the centre of the plus-maze and left to explore the maze for 5 minutes. The number of entries into the open and closed arms and the time spent in the open arms was recorded. Ten (10) mice were used for each study group. The test was performed blind.
(§1) Compound #8 was evaluated at 30 mg/kg, 60 mg/kg and 120 mg/kg doses, administered p.o. 60 minutes before the test, and compared with a vehicle control group. Compound #8 was homogenized and dispersed using a mortar and a pestle in 0.2% hydroxypropylmethylcellulose (HPMC) in distilled water, which served as the vehicle. As a positive control, Clobazam (16 mg/kg p.o.), was administered under the same experimental conditions. Clobazam as URBANYL®tablets (16 mg/kg p.o.) were dispersed in 0.2% hydroxypropylmethylcellulose (HPMC) in distilled water for administration. Each experiment therefore included 5 study groups of 10 mice each.
Data were analyzed by comparing groups treated with compound #8 with groups treated with vehicle control using unpaired Student's t tests. Table 4: Effect of Compound #8 in EPM

[2] = test system: Mouse; experiment: Four Plate Test, Mouse; format: in vivo; conditions: for Number of Punished Crossings % Change: change from vehicle control
From the text: The Four Plate assay was run according to the procedure as described by Aron et al (Neuropharmacology, 10, 459-469, 1971). In this assay, the rodent experiences an electric shock upon crossing from one plate to another. Anxiolytics (such as benzodiazepines) increase the number of punished crossings.
Animals were placed individually in a white plastic enclosure containing a floor consisting of 4 metal plates connected to an electric shock generator (Apelex : Type 011346). The mouse was left to explore freely for 15 seconds. Then, every time the mouse crossed from one plate to another, it received a weak electric shock (2.5 mA, 1.5 s). The number of punished crossings were counted during a 1 minute test. Ten (10) mice were used for each study group. The test was performed blind.
as §1, with “(32” for “(16”
Data were analyzed by comparing groups treated with compound #8 with groups treated with vehicle control using unpaired Student's t tests. Table 5: Effect of Compound #8 in Four Plate

[3] = 16 mg/kg p.o., positive control, same experimental conditions, t test vs vehicle p < 0.001
[4] = 16 mg/kg p.o., positive control
[5] = 30 mg/kg p.o. 60 minutes before the test, 5 minutes in maze, t test vs vehicle (NS)
[6] = 30 mg/kg p.o. 60 minutes before the test
[7] = 60 mg/kg p.o. 60 minutes before the test, 5 minutes in maze, t test vs vehicle p < 0.01
[8] = 60 mg/kg p.o. 60 minutes before the test
[9] = 120 mg/kg p.o. 60 minutes before the test, 5 minutes in maze, t test vs vehicle p < 0.05
[10] = 120 mg/kg p.o. 60 minutes before the test

SMILES: CN1C(=O)CC(=O)N(c2ccccc2)c2cc(Cl)ccc21 [CLOBAZAM, Clobazam, reference compound]
- Open Arms Number of Entries Mean ± S.E.M. [1, 3]: 11.7 ± 1.1 (***)
- Open Arms Time Spent (sec) Mean ± S.E.M. [1, 3]: 120.1 ± 13.1 s
- Closed Arms Number of Entries Mean ± S.E.M. ([1]; 16 mg/kg p.o., positive control, same experimental conditions, t test vs vehicle p < 0.05): 11.9 ± 1.5 (*)
- Closed Arms Number of Entries % change [1, 4]: +59%
- Open Arms Number of Entries % change [1, 4]: +350%
- Open Arms Time Spent (sec) % change [1, 4]: +567%
- Number of Punished Crossings Mean ± S.E.M. ([2]; 32 mg/kg p.o., positive control, same experimental conditions, t test vs vehicle p < 0.001): 9.9 ± 1.2 (***)

SMILES: NS(=O)(=O)NC[C@H]1COc2cc(Cl)ccc2O1 [Compound #8, (2S)-(-)-N-(6-Chloro-2,3-dihydro-benzo[1,4]dioxin-2-ylmethyl)-sulfamide]
- Closed Arms Number of Entries Mean ± S.E.M. [1, 5]: 8.5 ± 0.9 (NS)
- Open Arms Number of Entries Mean ± S.E.M. [1, 5]: 3.9 ±0.7 (NS)
- Open Arms Time Spent (sec) Mean ± S.E.M. ([1]; 30 mg/kg p.o. 60 minutes before the test, 5 minutes in maze, t test vs vehicle p < 0.01): 44.6 ± 8.0 s
- Closed Arms Number of Entries % change [1, 6]: +13%
- Open Arms Number of Entries % change [1, 6]: +50%
- Open Arms Time Spent (sec) % change [1, 6]: +148%
- Closed Arms Number of Entries Mean ± S.E.M. [1, 7]: 10.3 ± 0.8 (**)
- Open Arms Number of Entries Mean ± S.E.M. [1, 7]: 5.9 ± 1.0 (**)
- Open Arms Time Spent (sec) Mean ± S.E.M. [1, 7]: 54.1 ± 10.6 s
- Closed Arms Number of Entries % change [1, 8]: +37%
- Open Arms Number of Entries % change [1, 8]: +127%
- Open Arms Time Spent (sec) % change [1, 8]: +201%
- Open Arms Time Spent (sec) Mean ± S.E.M. ([1]; 120 mg/kg p.o. 60 minutes before the test, 5 minutes in maze, t test vs vehicle p < 0.01): 38.6 ± 5.2 s
- Closed Arms Number of Entries Mean ± S.E.M. [1, 9]: 10.0 ± 1.1 (*)
- Open Arms Number of Entries Mean ± S.E.M. [1, 9]: 4.5 ± 0.6 (*)
- Closed Arms Number of Entries % change [1, 10]: +33%
- Open Arms Number of Entries % change [1, 10]: +73%
- Open Arms Time Spent (sec) % change [1, 10]: +114%
- Number of Punished Crossings Mean ± S.E.M. ([2]; 30 mg/kg p.o. 60 minutes before the test, 1 minute test, t test vs vehicle (NS)): 4.5 ± 0.6 (NS)
- Number of Punished Crossings % Change [2, 6]: +15%
- Number of Punished Crossings Mean ± S.E.M. ([2]; 60 mg/kg p.o. 60 minutes before the test, 1 minute test, t test vs vehicle (NS)): 4.5 ± 0.3 (NS)
- Number of Punished Crossings % Change [2, 8]: +15%
- Number of Punished Crossings Mean ± S.E.M. ([2]; 120 mg/kg p.o. 60 minutes before the test, 1 minute test, t test vs vehicle p < 0.01): 6.6 ± 0.6 (**)
- Number of Punished Crossings % Change [2, 10]: +69%

— patent publication EP2276481B1, “USE OF BENZO-FUSED HETEROCYCLE SULFAMIDE DERIVATIVES FOR THE TREATMENT OF ANXIETY” (Janssen Pharmaceutica, N.V., priority 2008, dated 2009)
